Common to all, as to assay: ≥ marks a high value that may be exact or a test limit, other limits are often not marked, values filed in µg/mL are converted to µM
The subject of experiment [1] is Staphylococcus aureus ATCC 43300.
Experiment [2] concerns Klebsiella aerogenes.
Experiment [3] deals with Enterobacter cloacae ATCC 13047.
The test system of experiment [4] is Haemophilus influenzae ATCC 49247.
Experiment [5] deals with Escherichia coli ML-35p.
The test system of experiment [6] is Haemophilus influenzae ATCC 49766.
Experiment [7] relates to Enterobacter cloacae.
Experiment [8] deals with Enterococcus faecalis ATCC 29212.
In experiment [9] the test system is Candida albicans.
In experiment [10] the test system is Klebsiella pneumoniae ATCC 13883.
In experiment [11] the test system is Staphylococcus aureus ATCC 25923.
Experiment [12] concerns Pseudomonas aeruginosa.
In experiment [13] the test system is Escherichia coli.
In experiment [14] the test system is Staphylococcus aureus.
Experiment [15] deals with Pseudomonas aeruginosa PAO1.
In experiment [16] the test system is Escherichia coli ATCC 25922.
Experiment [17] relates to Candida albicans ATCC 2002.
Experiment [18] deals with Klebsiella pneumoniae ATCC 700603.
Experiment [19] has as its system Erwinia amylovora PMV 6076.
The test system of experiment [20] is Pseudomonas syringae pv. syringae EPS 94.
In experiment [21] the test system is Xanthomonas campestris pv. Vesicatoria 2133-2.
In experiment [22] the test system is Escherichia coli DC2.
Experiment [23] has as its system Staphylococcus aureus UAMS-1.
Experiment [24] relates to Escherichia coli K-12.
The subject of experiment [25] is Pseudomonas putida NCIM 2102.
Experiment [26] deals with Staphylococcus aureus PEP 4/3.
Experiment [27] deals with Bacillus subtilis.
Experiment [28] deals with Escherichia coli W160-37.
Experiment [29] relates to Staphylococcus aureus RF122.
Experiment [30] has as its system Cronobacter sakazakii DSM 4485.
Experiment [31] has as its system Escherichia coli NCIMB 11843.
For experiment [32], the system named is Staphylococcus aureus SA113.
In experiment [33] the test system is Staphylococcus aureus RN4220.
Experiment [34] deals with Staphylococcus aureus NCTC 8325-4.
The test system of experiment [35] is Pseudomonas fluorescens NCIMB 9046.
Experiment [36] relates to Staphylococcus aureus Newman.
Experiment [37] relates to Cronobacter muytjensii ATCC 51329.
In experiment [38] the test system is Cronobacter sakazakii DPC 6440.
For experiment [39], the system named is Klebsiella pneumoniae NCIMB 13218.
For experiment [40], the system named is Salmonella enterica subsp. enterica serovar Typhimurium LT2.
In experiment [41] the test system is Cronobacter sakazakii ATCC BAA-894.

Molecules are shown by their SMILES. In brackets after ≈: the same amount, converted by molar mass. Bounds are passed on as bounds.

Regarding `CC(C)C[C@H](NC(=O)[C@H](CCCCN)NC(=O)[C@H](CCCCN)NC(=O)[C@H](Cc1ccccc1)NC(=O)[C@H](Cc1ccccc1)NC(=O)[C@@H](N)CCCCN)C(=O)N[C@@H](CCCCN)C(=O)N[C@@H](CCCCN)C(=O)N[C@@H](C)C(=O)N[C@H](C(=O)N[C@@H](CCCCN)C(=O)N[C@@H](CCCCN)C(=O)NCC(=O)N[C@@H](Cc1ccccc1)C(=O)N[C@@H](CCCCN)C(=O)N[C@@H](CCCCN)C(=O)N[C@@H](Cc1ccccc1)C(=O)N[C@@H](C)C(=O)N[C@@H](CCCCN)C(=O)N[C@H](C(=O)O)C(C)C)C(C)C` [KFFKKLKKAVKKGFKKFAKV], the MIC in [1] was 1.3 µM (≈ 3.13 µg/mL); in experiment [2] it was at least 41.7 µM; in [3] it was at least 41.7 µM; in [4] it was 1.3 µM (≈ 3.13 µg/mL); in experiment [5], 2.61 µM (≈ 6.25 µg/mL); in experiment [6], 2.61 µM (≈ 6.25 µg/mL). The MIC in experiment [7] was at least 41.7 µM; in experiment [8], 10.4 µM (≈ 25 µg/mL); in experiment [9], over 83.4 µM; in experiment [10], 2.61 µM (≈ 6.25 µg/mL); in experiment [11], 5.21 µM (≈ 12.5 µg/mL); in experiment [12] it was 5.21 µM (≈ 12.5 µg/mL). The MIC in experiment [13] is 5.21 µM (≈ 12.5 µg/mL); in experiment [14], 5.21 µM (≈ 12.5 µg/mL); in [15], 5.21 µM (≈ 12.5 µg/mL); in experiment [16], 5.21 µM (≈ 12.5 µg/mL); in experiment [17] it was at least 83.4 µM; in experiment [18] it was 1.3 µM (≈ 3.13 µg/mL).
Consider `CC[C@H](C)[C@H](NC(=O)[C@H](CCCCN)NC(=O)[C@H](CCCCN)NC(=O)[C@H](Cc1ccccc1)NC(=O)[C@H](CC(C)C)NC(=O)[C@H](CCCCN)NC(=O)[C@H](CCCCN)NC(=O)[C@H](CC(C)C)NC(=O)[C@H](Cc1ccc(O)cc1)NC(=O)[C@H](CCCCN)NC(=O)[C@H](CC(C)C)NC(=O)[C@@H](NC(=O)[C@H](CCCCN)NC(=O)[C@H](CCCCN)NC(=O)[C@H](Cc1ccccc1)NC(=O)[C@H](CC(C)C)NC(=O)[C@H](CCCCN)NC(=O)[C@@H](N)CCCCN)[C@@H](C)CC)C(=O)N[C@@H](CC(C)C)C(=O)N[C@@H](CCCCN)C(=O)N[C@@H](Cc1ccc(O)cc1)C(=O)N[C@@H](CC(C)C)C(=O)O` [KKLFKKILKYLKKLFKKILKYL], for which the MIC is 14.1 µM (≈ 40 µg/mL) in experiment [19], 6.12 µM (≈ 17.3 µg/mL) in experiment [20] and 1.77 µM (≈ 5 µg/mL) in [21].
As for `CC[C@H](C)[C@H](NC(=O)[C@H](CCCCN)NC(=O)[C@H](CCC(=O)O)NC(=O)[C@H](CCCCN)NC(=O)[C@H](C)NC(=O)[C@H](CCCCN)NC(=O)[C@H](CCCN=C(N)N)NC(=O)[C@H](Cc1ccccc1)NC(=O)[C@H](Cc1ccccc1)NC(=O)[C@H](CC(=O)O)NC(=O)CNC(=O)[C@H](CC(C)C)NC(=O)[C@@H](N)CC(C)C)C(=O)NCC(=O)N[C@@H](CCCCN)C(=O)N[C@@H](CCC(=O)O)C(=O)N[C@@H](Cc1ccccc1)C(=O)N[C@@H](CCCCN)C(=O)N[C@@H](CCCN=C(N)N)C(=O)N[C@H](C(=O)N[C@H](C(=O)N[C@@H](CCC(N)=O)C(=O)N[C@@H](CCCN=C(N)N)C(=O)O)C(C)C)[C@@H](C)CC` [LLGDFFRKAKEKIGKEFKRIVQR], the MIC in [22] was 9 µM (≈ 25.3 µg/mL); in [23] it was at least 160 µM; in experiment [14] it was over 24 µM; in experiment [24], at least 80 µM.
With `CC[C@H](C)[C@H](NC(=O)[C@H](Cc1c[nH]c2ccccc12)NC(=O)[C@H](CCCCN)NC(=O)[C@H](CO)NC(=O)[C@H](CC(C)C)NC(=O)[C@H](Cc1ccccc1)NC(=O)[C@@H](NC(=O)[C@H](CCC(=O)O)NC(=O)[C@H](CC(C)C)NC(=O)[C@H](CC(C)C)NC(=O)[C@H](CCCCN)NC(=O)[C@@H]1CCCN1C(=O)[C@H](CC(N)=O)NC(=O)[C@H](C)NC(=O)[C@H](CC(C)C)NC(=O)[C@H](CCCN=C(N)N)NC(=O)[C@H](CC(N)=O)NC(=O)[C@H](C)NC(=O)[C@H](CC(C)C)NC(=O)[C@H](CCCCN)NC(=O)[C@H](C)NC(=O)[C@H](Cc1ccc(O)cc1)NC(=O)[C@H](CCCN=C(N)N)NC(=O)[C@H](CO)NC(=O)[C@H](CC(C)C)NC(=O)[C@@H](N)CO)[C@@H](C)O)C(=O)NCC(=O)O` [SLSRYAKLANRLANPKLLETFLSKWIG], the MIC in experiment [25] came out at 17.7 µM (≈ 54.8 µg/mL); in experiment [26], 14.5 µM (≈ 44.7 µg/mL); in experiment [27], 4.58 µM (≈ 14.1 µg/mL); in [28], 4.58 µM (≈ 14.1 µg/mL).
On to `CC[C@H](C)[C@H](NC(=O)[C@@H](N)C(C)C)C(=O)N[C@@H](CC(N)=O)C(=O)N[C@@H](CCC(=O)O)C(=O)N[C@@H](CC(N)=O)C(=O)N[C@@H](CC(C)C)C(=O)N[C@@H](CC(C)C)C(=O)N[C@@H](CCCN=C(N)N)C(=O)O` [VINENLLR], for which the MIC in [29] was at least 1250 µM; in experiment [30] it was at least 1250 µM; in experiment [31] it was at least 2500 µM; in experiment [32], at least 1250 µM; in experiment [33] it was at least 1250 µM; in experiment [34] it was at least 625 µM. The MIC in experiment [35] was at least 2500 µM; in experiment [36], at least 1250 µM; in [37] it was at least 1250 µM; in experiment [38] it was at least 1250 µM; in experiment [39] it was at least 2500 µM; in experiment [40] it was at least 2500 µM. For the same compound, the MIC in experiment [41] is at least 1250 µM.

The values are drawn from DBAASP.
